Earlier results, collected in patent US4041155A, “Long acting somatostatin composition” (American Home Products Corporation, priority 1974, dated 1977).

What was measured:
[1] = system: circulating levels of GH; details: subcutaneous route, cited from earlier work
[2] = system: GH secretion; details: patients with acromegaly; cited from earlier work
[3] = system: release of glucagon, insulin, and GH; details: oral glucose tolerance and intravenous arginine tests; cited from earlier work

| Substance | circulating levels of GH ([1]; "gentled" rats) | elevation of plasma GH concentration induced by sodium pentobarbital ([1]; rats) | duration of activity, half-life ([1]; rats, estimated) | circulating levels of glucose [2] | circulating levels of insulin [2] | circulating levels of prolactin [2] | duration of biologic action [2] | free fatty acids [2] | inhibitory action on GH secretion [2] | levels of follicle-stimulating hormone [2] | levels of luteinizing hormone [2] | levels of thyrotropin [2] | release of GH [3] | release of glucagon [3] | release of insulin [3] |
| --- | --- | --- | --- | --- | --- | --- | --- | --- | --- | --- | --- | --- | --- | --- | --- |
| linear somatostatin: reduced tetradecapeptide; differs from cyclic form by lacking the bridging bond between the two cysteinyl sulfhydryls | lowers the circulating levels of GH | prevents the elevation of plasma GH concentration | less than ten minutes | – | – | – | – | – | – | – | – | – | – | – | – |
| Somatostatin: cyclic disulfide tetradecapeptide; Somatotropin-release inhibiting factor secreted by the hypothalamus | – | – | – | fall | fall | fall | brief | increase | nearly complete | No effects | No effects | No effects | impairs the release | impairs the release | impairs the release |
